pEC50, pKd: −log10 of the molar value. Where two headings read alike, the source gives them in different places.
Key:
ASGPR = target: T1, ASGPR (Homo sapiens, UniProt P07306); experiment: ASGPR SPR binding
T1 construct: biotin (biotinylated)
T1 sequence (P07306 1-291): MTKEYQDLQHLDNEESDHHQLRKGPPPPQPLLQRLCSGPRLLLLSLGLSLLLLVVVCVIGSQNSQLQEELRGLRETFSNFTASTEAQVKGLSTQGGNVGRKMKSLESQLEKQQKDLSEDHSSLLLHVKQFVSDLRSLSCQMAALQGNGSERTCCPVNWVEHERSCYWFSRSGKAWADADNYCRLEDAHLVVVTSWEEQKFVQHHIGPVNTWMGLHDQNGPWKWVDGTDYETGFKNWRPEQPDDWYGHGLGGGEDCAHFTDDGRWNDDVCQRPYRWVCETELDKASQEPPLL

HepG2 cells = experiment: Cellular uptake assay (high-content imaging); assay type: cell-based, human; conditions: 100 nM AF488-labeled antibody, 6 hours at 37° C.
Description: The cellular uptake assay is designed to measure compound-mediated cellular uptake of fluorescently labeled antibody following ternary complex formation with the ASGPR receptor and endocytosis of the entire complex into cells. The optimal concentration of compound will result in the maximum number of cells with intracellular antibody and is represented as the peak ratio of antibody-positive cells over the total number of cells. As with the ternary complex formation assay, too much or too little compound will result in suboptimal complex formation and fewer cells will have measurable intracellular fluorescence.
Human IgG (Sigma-Aldrich, 14506) was covalently labeled with Alexa Fluor 488 using the Alexa Fluor™ 488 Protein Labeling Kit (Thermo Fisher, A10235) following the manufacturer's instructions. HepG2 cells were plated in DMEM supplemented with 10% FBS at 5,000 cells per well in a 96-well microtiter plate and incubated for approximately 18 hours at 37° C./5% CO2. For studies using human IgG, 100 nM AF488-labeled human IgG antibodies and serial dilutions of IgG-based degrader (0.1% DMSO final concentration) were added to the cells and the mixture was incubated at 37° C. for 6 hours. For studies using DNP, 100 nM AF488-labeled DNP antibodies and serial dilutions of DNP-based degrader (0.1% DMSO final concentration) were added to the cells and the mixture was incubated at 37° C. for 6 hours. HepG2 cells were fixed in 100% methanol at −20° C. for 20 min, washed 3× with PBS, then stained with DAPI (Thermo, Cat #H3570). HepG2 cells were imaged for DAPI and Alexa Fluor 488 using the Operetta CLS, high-content analysis system (PerkinElmer). Data is presented as the ratio of the number of cells positive for hIgG or DNP (AF-488 fluorescence) over the total cell number (measured by DAPI).

[1] = target: T2, ASGPR receptor on HepG2 cells (ternary complex with AF488-labeled antibody) (Homo sapiens, UniProt P07306); experiment: Ternary complex formation assay (flow cytometry, cell-associated AF488 fluorescence); assay type: cell-based; conditions: 100 nM AF488-labeled antibody, 1 hour at 4° C.
T2 construct: host or cells: HepG2
T2 sequence (P07306 1-291): T1 sequence (P07306 1-291)
T2 sequence (P07307 1-311 partner): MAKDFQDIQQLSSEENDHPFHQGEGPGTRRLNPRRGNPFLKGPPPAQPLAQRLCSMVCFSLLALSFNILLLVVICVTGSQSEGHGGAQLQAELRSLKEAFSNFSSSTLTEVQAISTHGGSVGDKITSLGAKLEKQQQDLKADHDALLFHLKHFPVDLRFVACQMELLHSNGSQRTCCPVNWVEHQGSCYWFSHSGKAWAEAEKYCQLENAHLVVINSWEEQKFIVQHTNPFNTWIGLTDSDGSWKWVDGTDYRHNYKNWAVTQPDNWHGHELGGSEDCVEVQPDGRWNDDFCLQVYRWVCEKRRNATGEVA

IgG = IgG SPR binding
[2] = Table 3, read-out: ASGPR SPR Binding KD
[3] = Homo sapiens, Table 3, class symbols, read-out: Uptake Assay (EC50)
[4] = Table 3, class symbols, read-out: Ternary Complex EC50
[5] = Table 3, read-out: IgG SPR Binding KD
[6] = Table 3, numeric bounds, read-out: Ternary Complex EC50
[7] = second table, read-out: ASGPR KD
[8] = the 25th table, class symbols, read-out: TCF EC50

| Structure (SMILES) | pKd (ASGPR; [2]) | pEC50 (HepG2 cells; [3]) | pEC50 [1, 4] | pKd (IgG; [5]) | pEC50 [1, 6] | pKd (ASGPR; [7]) | pEC50 (HepG2 cells; Homo sapiens, the 25th table, class symbols, read-out: Uptake EC50) | pEC50 [1, 8] | pKd (IgG; second table, read-out: IgG KD) | pEC50 (HepG2 cells; the 25th table, class symbols, read-out: Uptake EC50) | pEC50 (HepG2 cells; Homo sapiens, Table 3, numeric bounds, read-out: Uptake Assay (EC50)) |
| --- | --- | --- | --- | --- | --- | --- | --- | --- | --- | --- | --- |
| CC(C)C[C@@H]1NC(=O)[C@H](Cc2cnc[nH]2)NC(=O)[C@H](Cc2c[nH]c3ccccc23)NC(=O)[C@H](C)NC(=O)[C@@H]2CSSC[C@H](NC(=O)[C@H](Cc3c[nH]c4ccccc34)NC(=O)[C@H](C(C)C)NC(=O)[C@H](CC(C)C)NC(=O)[C@H](CCC(=O)O)NC(=O)CNC1=O)C(=O)N[C@@H]([C@@H](C)O)C(=O)N1CCC[C@@H]1C(=O)N1C[C@@H](NC(=O)c3ccc(N4CCC(CN5CCN(C[C@H]6OC[C@H](Nc7nc(C(F)(F)F)ccc7F)[C@@H](O)[C@H]6O)CC5)CC4)cc3)C[C@H]1C(=O)N[C@@H](CC(=O)O)C(=O)N2 [compound 27] | > 7.00 | > 7.00 | > 7.00 | > 7.00 |  |  |  |  |  |  |  |
| CC(C)C[C@@H]1NC(=O)[C@H](Cc2cnc[nH]2)NC(=O)[C@H](Cc2c[nH]c3ccccc23)NC(=O)[C@H](C)NC(=O)[C@@H]2CSSC[C@H](NC(=O)[C@H](Cc3c[nH]c4ccccc34)NC(=O)[C@H](C(C)C)NC(=O)[C@H](CC(C)C)NC(=O)[C@H](CCC(=O)O)NC(=O)CNC1=O)C(=O)N[C@@H]([C@@H](C)O)C(=O)N1CCC[C@@H]1C(=O)N1C[C@@H](NC(=O)COCCOCC(=O)NC[C@H]3OC[C@H](Nc4nc(C(F)(F)F)ccc4F)[C@@H](O)[C@H]3O)C[C@H]1C(=O)N[C@@H](CC(=O)O)C(=O)N2 [compound 33] | 6.30 to 7.00 | > 7.00 | > 7.00 | > 7.00 |  |  |  |  |  |  |  |
| CC(C)C[C@@H]1NC(=O)[C@H](Cc2cnc[nH]2)NC(=O)[C@H](Cc2c[nH]c3ccccc23)NC(=O)[C@H](C)NC(=O)[C@@H]2CSSC[C@H](NC(=O)[C@H](Cc3c[nH]c4ccccc34)NC(=O)[C@H](C(C)C)NC(=O)[C@H](CC(C)C)NC(=O)[C@H](CCC(=O)O)NC(=O)CNC1=O)C(=O)N[C@@H]([C@@H](C)O)C(=O)N1CCC[C@@H]1C(=O)N1C[C@@H](NC(=O)COCCOCC(=O)NC[C@H]3OC[C@H](Nc4nccc(C(F)(F)F)n4)[C@@H](O)[C@H]3O)C[C@H]1C(=O)N[C@@H](CC(=O)O)C(=O)N2 [compound 34] | < 6.00 | < 6.00 |  | > 7.00 | < 6.02 |  |  |  |  |  |  |
| CC(C)C[C@@H]1NC(=O)[C@H](Cc2cnc[nH]2)NC(=O)[C@H](Cc2c[nH]c3ccccc23)NC(=O)[C@H](C)NC(=O)[C@@H]2CSSC[C@H](NC(=O)[C@H](Cc3c[nH]c4ccccc34)NC(=O)[C@H](C(C)C)NC(=O)[C@H](CC(C)C)NC(=O)[C@H](CCC(=O)O)NC(=O)CNC1=O)C(=O)N[C@@H]([C@@H](C)O)C(=O)N1CCC[C@@H]1C(=O)N1C[C@@H](NC(=O)c3ccc(N4CCC(CN5CCN(C[C@H]6OC[C@H](Nc7ccnc(C(F)(F)F)n7)[C@@H](O)[C@H]6O)CC5)CC4)cc3)C[C@H]1C(=O)N[C@@H](CC(=O)O)C(=O)N2 [compound 31] | > 7.00 | > 7.00 | > 7.00 | > 7.00 |  |  |  |  |  |  |  |
| CC(C)C[C@@H]1NC(=O)[C@H](Cc2cnc[nH]2)NC(=O)[C@H](Cc2c[nH]c3ccccc23)NC(=O)[C@H](C)NC(=O)[C@@H]2CSSC[C@H](NC(=O)[C@H](Cc3c[nH]c4ccccc34)NC(=O)[C@H](C(C)C)NC(=O)[C@H](CC(C)C)NC(=O)[C@H](CCC(=O)O)NC(=O)CNC1=O)C(=O)N[C@@H]([C@@H](C)O)C(=O)N1CCC[C@@H]1C(=O)N1C[C@H](NC(=O)c3ccc(N4CCC(CN5CCN(C[C@H]6OC[C@H](Nc7nc(C(F)(F)F)ccc7F)[C@@H](O)[C@H]6O)CC5)CC4)cc3)C[C@H]1C(=O)N[C@@H](CC(=O)O)C(=O)N2 [compound 30] | > 7.00 | 6.30 to 7.00 | 6.30 to 7.00 | > 7.00 |  |  |  |  |  |  |  |
| CC(C)C[C@@H]1NC(=O)[C@H](Cc2cnc[nH]2)NC(=O)[C@H](Cc2c[nH]c3ccccc23)NC(=O)[C@H](C)NC(=O)[C@@H]2CSSC[C@H](NC(=O)[C@H](Cc3c[nH]c4ccccc34)NC(=O)[C@H](C(C)C)NC(=O)[C@H](CC(C)C)NC(=O)[C@H](CCC(=O)O)NC(=O)CNC1=O)C(=O)N[C@@H]([C@@H](C)O)C(=O)N1CCC[C@@H]1C(=O)N1C[C@H](NC(=O)c3ccc(N4CCC(CN5CCN(C[C@H]6OC[C@H](Nc7cccc(C(F)(F)F)n7)[C@@H](O)[C@H]6O)CC5)CC4)cc3)C[C@H]1C(=O)N[C@@H](CC(=O)O)C(=O)N2 [compound 29] | > 7.00 | 6.30 to 7.00 | > 7.00 | > 7.00 |  |  |  |  |  |  |  |
| CC(C)C[C@@H]1NC(=O)[C@H](Cc2cnc[nH]2)NC(=O)[C@H](Cc2c[nH]c3ccccc23)NC(=O)[C@H](C)NC(=O)[C@@H]2CSSC[C@H](NC(=O)[C@H](Cc3c[nH]c4ccccc34)NC(=O)[C@H](C(C)C)NC(=O)[C@H](CC(C)C)NC(=O)[C@H](CCC(=O)O)NC(=O)CNC1=O)C(=O)N[C@@H]([C@@H](C)O)C(=O)N1CCC[C@@H]1C(=O)N1C[C@H](NC(=O)c3ccc(N4CCC(CN5CCN(C[C@H]6OC[C@H](Nc7ccnc(C(F)(F)F)n7)[C@@H](O)[C@H]6O)CC5)CC4)cc3)C[C@H]1C(=O)N[C@@H](CC(=O)O)C(=O)N2 [compound 32] | > 7.00 | > 7.00 | > 7.00 | > 7.00 |  |  |  |  |  |  |  |
| CC(C)C[C@@H]1NC(=O)[C@H](Cc2cnc[nH]2)NC(=O)[C@H](Cc2c[nH]c3ccccc23)NC(=O)[C@H](C)NC(=O)[C@@H]2CSSC[C@H](NC(=O)[C@H](Cc3c[nH]c4ccccc34)NC(=O)[C@H](C(C)C)NC(=O)[C@H](CC(C)C)NC(=O)[C@H](CCC(=O)O)NC(=O)CNC1=O)C(=O)N[C@@H]([C@@H](C)O)C(=O)N1CCC[C@@H]1C(=O)N1C[C@H](NC(=O)CNC(COCCC(=O)NCCOCCOCCOCCOC[C@H]3OC[C@H](Nc4cncc(C(F)(F)F)n4)[C@@H](O)[C@H]3O)COCCC(=O)NCCOCCOCCOCCOC[C@H]3OC[C@H](Nc4cncc(C(F)(F)F)n4)[C@@H](O)[C@H]3O)C[C@H]1C(=O)N[C@@H](CC(=O)O)C(=O)N2 [compound 97] |  |  |  |  |  | > 7.00 | > 7.00 | > 7.00 | > 7.00 |  |  |
| CC(C)C[C@@H]1NC(=O)[C@H](Cc2cnc[nH]2)NC(=O)[C@H](Cc2c[nH]c3ccccc23)NC(=O)[C@H](C)NC(=O)[C@@H](NC(=O)[C@H](CC(=O)O)NC(=O)CCOCCOCCOCCOCCNC(=O)CCCc2cn(CCCCCC(=O)NC(CCCCC(=O)NCCOCCOCCOCCOC[C@H]3OC[C@H](Nc4nccc(C(F)(F)F)n4)[C@@H](O)[C@H]3O)COCCC(=O)NCCOCCOCCOCCOC[C@H]3OC[C@H](Nc4nccc(C(F)(F)F)n4)[C@@H](O)[C@H]3O)nn2)CSSC[C@@H](C(=O)N[C@H](C(N)=O)[C@@H](C)O)NC(=O)[C@H](Cc2c[nH]c3ccccc23)NC(=O)[C@H](C(C)C)NC(=O)[C@H](CC(C)C)NC(=O)[C@H](CCC(=O)O)NC(=O)CNC1=O (stereo partly shown) [compound 90] |  |  |  |  |  | > 7.00 |  | > 7.00 | > 7.00 | > 7.00 |  |
| CC(C)C[C@@H]1NC(=O)[C@H](Cc2cnc[nH]2)NC(=O)[C@H](Cc2c[nH]c3ccccc23)NC(=O)[C@H](C)NC(=O)[C@@H]2CSSC[C@H](NC(=O)[C@H](Cc3c[nH]c4ccccc34)NC(=O)[C@H](C(C)C)NC(=O)[C@H](CC(C)C)NC(=O)[C@H](CCC(=O)O)NC(=O)CNC1=O)C(=O)N[C@@H]([C@@H](C)O)C(=O)N1CCC[C@@H]1C(=O)N1C[C@H](NC(=O)COCCOCC(=O)NC[C@H]3OC[C@H](Nc4nccc(C(F)(F)F)n4)[C@@H](O)[C@H]3O)C[C@H]1C(=O)N[C@@H](CC(=O)O)C(=O)N2 [compound 35] | < 6.00 |  |  | > 7.00 | < 5.00 |  |  |  |  |  | < 5.00 |

— patent US20260083851A1 (AVILAR THERAPEUTICS, INC., priority 2022, published 2026)
